Laboratory results from US20230159445A1, “STAT INHIBITORY COMPOUNDS AND COMPOSITIONS” (JANPIX LIMITED, priority 2020, published 2023).

Experiments:
MV4-11 cells = experiment: MV4-11 Cell Cytotoxicity Assay (CellTiter-Blue, 72 h); type: cell-based, human; details: Homo sapiens, MV4-11; MV-4-11 cells
In short: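 Cells seeded 24 h before treatment, then exposed 72 h at 37° C, 5% CO2 to inhibitors in triplicate, top concentration 50 μM with 1:2 serial dilutions (0.5% DMSO vehicle). Viability read by CellTiter-Blue fluorescence at 560/590 nm after 1 h.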

glutathione (GSH) = experiment: Reactivity Profiling with Glutathione (GSH), half-life by HPLC; details: 5 mM glutathione (GSH) in IMDM with 10% FBS
[1] = system: normal human fibroblast (NHF) cells; experiment: NHF Cell Cytotoxicity Assay (CellTiter-Blue, 72 h), off-target effects; type: cell-based; details: Homo sapiens, Fibroblast; pooled NHF cells
Description: In some embodiments, the off-target effects of the compounds are evaluated in healthy human cells, such as in a normal human fibroblast (NHF) cell cytotoxicity assay.
Cell viability was examined following treatment at various concentrations of inhibitor (0.097656-50 μM) using a cell Titer-Blue cell viability assay. 1×10^4 normal human fibroblast cells per well were plated in 96-well assay plates in culture medium. All cells are grown in DMEM, IMDM and RPMI-1640 were supplemented with 10% FBS. After 24 hours, test compounds and vehicle controls are added to appropriate wells so the final volume was 100 μl in each well. The cells are cultured for the desired test exposure period (72 hours) at 37° C. and 5% CO2. The assay plates are removed from 37° C. incubator and 20 μL/well of CellTiter-Blue® Reagent is added. The plates are incubated using standard cell culture conditions for 1-4 hours and the plates are shaken for 10 seconds and record fluorescence at 560/590nm. For each sample well, value is normalized between the DMSO control and the highest concentration in case of plateau, and converted into a percentage. In the absence of plateau, minimum lecture is obtained from a different sample within the same experiment. For each concentration, the four replicates are averaged and standard deviation calculated. Data is fitted to a log(inhibitor) vs response curve with variable slope model using Microsoft Excel, obtaining IC50 and Hill slope variables.
A person skilled in the art would appreciate that a higher IC50 value in this NHF assay can indicate lower off-target effects.

SMILES	half-life at 25 μM (glutathione (GSH))	IC50 (MV4-11 cells)	IC50 [1]
O=C(O)c1ccc(N(Cc2cccc(-n3cccc3)c2)C(=O)CN(Cc2cnccc2C(F)(F)F)S(=O)(=O)c2c(F)c(F)c(F)c(F)c2F)c(OC2CC2)c1 [Compound 1161, 4-(N-(3-(1H-pyrrol-1-yl)benzyl)-2-(N-((4-(trifluoromethyl)pyridin-3-yl)methyl)-(2,3,4,5,6-pentafluoro-phenyl)sulfonamido)acetamido)-3-cyclopropoxybenzoic acid]	0.00167 to 2.37 h	316 to 1000 nM	–
O=C(O)c1ccc(N(Cc2cc(C3CC3)cc(C3CC3)c2)C(=O)CN(Cc2cnccc2C(F)(F)F)S(=O)(=O)c2c(F)c(F)c(F)c(F)c2F)c(OC2CC2)c1 [Compound 1163, 3-cyclopropoxy-4-(N-(3,5-dicyclopropylbenzyl)-2-(N-((4-(trifluoromethyl)pyridin-3-yl)methyl)-(2,3,4,5,6-pentafluoro-phenyl)sulfonamido)acetamido)benzoic acid]	2.37 to 4.12 h	0.01 to 316 nM	–
COc1cc(C(=O)O)ccc1N(Cc1cc(C2CC2)cc(N2CCCC2)c1)C(=O)CN(Cc1cnccc1C(F)(F)F)S(=O)(=O)c1c(F)c(F)c(F)c(F)c1F [Compound 1165, 4-(N-(3-cyclopropyl-5-(pyrrolidin-1-yl)benzyl)-2-(N-((4-(trifluoromethyl)pyridin-3-yl)methyl)-(2,3,4,5,6-pentafluoro-phenyl)sulfonamido)acetamido)-3-methoxybenzoic acid]	0.00167 to 2.37 h	316 to 1000 nM	–
COc1cc(C(=O)O)ccc1N(Cc1cc(C2CC2)cc(C(C)(C)C)c1)C(=O)CN(Cc1ncc(F)cc1Cl)S(=O)(=O)c1c(F)c(F)c(F)c(F)c1F [Compound 1179, 4-(N-(3-(tert-butyl)-5-cyclopropylbenzyl)-2-(N-((3-chloro-5-fluoropyridin-2-yl)methyl)-(2,3,4,5,6-pentafluorophenyl)sulfon-amido)acetamido)-3-methoxybenzoic acid]	2.37 to 4.12 h	0.01 to 316 nM	–
Cc1cc(C(=O)O)cc(C)c1N(Cc1cc(C2CC2)cc(C2CC2)c1)C(=O)CN(Cc1ccc(F)cc1Cl)S(=O)(=O)c1c(F)c(F)c(F)c(F)c1F [Compound 1188, 4-(2-(N-(2-chloro-4-fluorobenzyl)-(2,3,4,5,6-pentafluorophenyl)sulfon-amido)-N-(3,5-dicyclopropylbenzyl)acetamido)-3,5-dimethylbenzoic acid]	–	316 to 1000 nM	1 to 10000 nM
CC(C)(C)c1cc(CN(C(=O)CN(Cc2ccccc2C#N)S(=O)(=O)c2c(F)c(F)c(F)c(F)c2F)c2ccc(C(=O)O)cc2OC2CC2)cc(C2CC2)c1 [Compound 1224, 4-(N-(3-(tert-butyl)-5-cyclopropylbenzyl)-2-(N-(2-cyanobenzyl)-(2,3,4,5,6-pentafluorophenyl)sulfon-amido)acetamido)-3-cyclopropoxybenzoic acid]	–	–	1 to 10000 nM
CCc1cc(C(=O)O)ccc1N(Cc1cc(C2CC2)cc(C2CC2)c1)C(=O)CN(Cc1ccc(F)cc1Cl)S(=O)(=O)c1c(F)c(F)c(F)c(F)c1F [Compound 1243, 4-(2-(N-(2-chloro-4-fluorobenzyl)-(2,3,4,5,6-pentafluorophenyl)sulfon-amido)-N-(3,5-dicyclopropylbenzyl)acetamido)-3-ethylbenzoic acid]	–	–	10000 to 20000 nM
CC(C)c1cc(C(=O)O)ccc1N(Cc1cc(C2CC2)cc(C2CC2)c1)C(=O)CN(Cc1ccc(F)cc1Cl)S(=O)(=O)c1c(F)c(F)c(F)c(F)c1F [Compound 1244, 4-(2-(N-(2-chloro-4-fluorobenzyl)-(2,3,4,5,6-pentafluorophenyl)sulfon-amido)-N-(3,5-dicyclopropylbenzyl)acetamido)-3-isopropylbenzoic acid]	–	–	10000 to 20000 nM
O=C(O)c1ccc(N(Cc2cc(C3CC3)cc(C3CC3)c2)C(=O)CN(Cc2ccc(F)cc2Cl)S(=O)(=O)c2c(F)c(F)c(F)c(F)c2F)c(OC2CCSC2)c1 (stereo not shown) [Compound 1264, 4-(2-(N-(2-chloro-4-fluorobenzyl)-(2,3,4,5,6-pentafluorophenyl)sulfon-amido)-N-(3,5-dicyclopropylbenzyl)acetamido)-3-((tetrahydrothiophen-3-yl)oxy)benzoic acid]	–	–	10000 to 20000 nM

Now from value to compound, other results behind:

half-life at 25 μM (glutathione (GSH))	SMILES	IC50 (MV4-11 cells)	IC50 [1]
2.37 to 4.12 h	COc1cc(C(=O)O)ccc1N(Cc1cc(C2CC2)cc(C(C)(C)C)c1)C(=O)CN(Cc1ccc(F)cc1C#N)S(=O)(=O)c1c(F)c(F)c(F)c(F)c1F [Compound 1180, 4-(N-(3-(tert-butyl)-5-cyclopropylbenzyl)-2-(N-(2-cyano-4-fluorobenzyl)-(2,3,4,5,6-pentafluorophenyl)sulfon-amido)acetamido)-3-methoxybenzoic acid]	0.01 to 316 nM	–
9.23 to 1670 h	Cc1cc(C(=O)O)cc(C)c1N(Cc1cc(C2CC2)cc(C(C)(C)C)c1)C(=O)CN(Cc1c(F)c(F)c(F)c(F)c1F)S(=O)(=O)c1c(F)c(F)c(F)c(F)c1F [Compound 1201, 4-(N-(3-(tert-butyl)-5-cyclopropylbenzyl)-2-(N-((perfluorophenyl)methyl)-(2,3,4,5,6-pentafluorophenyl)sulfonamido)acetamido)-3,5-dimethylbenzoic acid]	316 to 1000 nM	–
9.23 to 1670 h	O=C(O)c1ccc(N(Cc2cc(C3CC3)cc(C3CC3)c2)C(=O)CN(Cc2ccc(F)cc2Cl)S(=O)(=O)c2ccc(F)nc2)c(OC2CC2)c1 [Compound 1225, 4-(2-(N-(2-chloro-4-fluorobenzyl)-(6-fluoropyridine)-3-sulfonamido)-N-(3,5-dicyclopropylbenzyl)acetamido)-3-cyclopropoxybenzoic acid]	3160 to 100000 nM	–
4.12 to 9.23 h	COc1ccccc1CN(CC(=O)N(Cc1cc(C2CC2)cc(C(C)(C)C)c1)c1ccc(C(=O)O)cc1OC1CC1)S(=O)(=O)c1c(F)c(F)c(F)c(F)c1F [Compound 1234, 4-(N-(3-(tert-butyl)-5-cyclopropylbenzyl)-2-(N-(2-methoxybenzyl)-(2,3,4,5,6-pentafluoro-phenyl)sulfonamido)acetamido)-3-cyclopropoxybenzoic acid]	316 to 1000 nM	–
9.23 to 1670 h	CC(C)(C)c1cc(CN(C(=O)CN(Cc2ccccc2OC(F)(F)F)S(=O)(=O)c2c(F)c(F)c(F)c(F)c2F)c2ccc(C(=O)O)cc2OC2CC2)cc(C2CC2)c1 [Compound 1235, 4-(N-(3-(tert-butyl)-5-cyclopropylbenzyl)-2-(N-(2-(trifluoromethoxy)benzyl)-(2,3,4,5,6-pentafluoro-phenyl)sulfonamido)acetamido)-3-cyclopropoxybenzoic acid]	316 to 1000 nM	–
9.23 to 1670 h	CN(C)c1ccccc1CN(CC(=O)N(Cc1cc(C2CC2)cc(C(C)(C)C)c1)c1ccc(C(=O)O)cc1OC1CC1)S(=O)(=O)c1c(F)c(F)c(F)c(F)c1F [Compound 1236, 4-(N-(3-(tert-butyl)-5-cyclopropylbenzyl)-2-(N-(2-(dimethylamino)benzyl)-(2,3,4,5,6-pentafluorophenyl)sulfon-amido)acetamido)-3-cyclopropoxybenzoic acid]	316 to 1000 nM	–
9.23 to 1670 h	CC(C)(C)c1cc(CN(C(=O)CN(Cc2ccccc2N2CCCC2)S(=O)(=O)c2c(F)c(F)c(F)c(F)c2F)c2ccc(C(=O)O)cc2OC2CC2)cc(C2CC2)c1 [Compound 1237, 4-(N-(3-(tert-butyl)-5-cyclopropylbenzyl)-2-(N-(2-(pyrrolidin-1-yl)benzyl)-(2,3,4,5,6-pentafluoro-phenyl)sulfonamido)acetamido)-3-cyclopropoxybenzoic acid]	316 to 1000 nM	–
